In ChEMBL document CHEMBL1133177, “Application of similarity matrices and genetic neural networks in quantitative structure-activity relationships of 2- or 4-(4-Methylpiperazino)pyrimidines: 5-HT(2A) receptor antagonists” (J Med Chem, 2000):

Key:
[1] = biological target: T1, 5-hydroxytryptamine receptor 2A (Rattus norvegicus, UniProt P14842); assay: Affinity for 5-hydroxytryptamine 2A receptor in rat brain cortex by ability to displace [3H]ketanserin; assay type: tissue-based
[2] = biological target: T1, 5-hydroxytryptamine receptor 2A; assay: Affinity 5-hydroxytryptamine 2A receptor of the rat brain cortex was assessed on the basis of their ability to displace [3H]ketanserin
[3] = biological target: T1, 5-hydroxytryptamine receptor 2A; assay: (§1) Affinity at 5-hydroxytryptamine 2A receptor of the rat brain cortex was assessed on the basis of their ability to displace [3H]ketanserin
[4] = biological target: T1, 5-hydroxytryptamine receptor 2A; assay: as §1; remark: listed apart in the source

T1 sequence (P14842 whole entry): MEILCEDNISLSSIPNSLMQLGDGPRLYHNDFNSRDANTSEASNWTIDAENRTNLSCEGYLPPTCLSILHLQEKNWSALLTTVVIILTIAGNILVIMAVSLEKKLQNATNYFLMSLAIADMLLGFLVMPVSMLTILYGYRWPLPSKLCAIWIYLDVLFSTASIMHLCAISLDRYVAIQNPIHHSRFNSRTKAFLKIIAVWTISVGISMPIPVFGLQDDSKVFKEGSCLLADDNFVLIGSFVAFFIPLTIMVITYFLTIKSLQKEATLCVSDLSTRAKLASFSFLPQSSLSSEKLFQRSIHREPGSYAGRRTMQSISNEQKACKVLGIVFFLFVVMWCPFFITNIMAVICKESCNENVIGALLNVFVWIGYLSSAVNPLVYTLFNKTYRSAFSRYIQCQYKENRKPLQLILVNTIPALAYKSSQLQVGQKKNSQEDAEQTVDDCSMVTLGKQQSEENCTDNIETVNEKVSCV

| Compound | Ki [1] [nM] | Ki [2] [nM] | Ki [3] [nM] | Ki [4] [nM] |
| --- | --- | --- | --- | --- |
| CN1CCN(c2nc(-c3ccoc3)cc(-c3cc4ccccc4s3)n2)CC1 | 55 |  |  |  |
| CN1CCN(c2nc(-c3ccco3)cc(-c3cc4ccccc4o3)n2)CC1 | 110 |  |  |  |
| CN1CCN(c2nc(-c3ccco3)cc(-c3cc4ccccc4s3)n2)CC1 | 37.2 |  |  |  |
| CN1CCN(c2cc(-n3ccnc3)ncn2)CC1 |  |  | > 10000 | > 10000 |
| CN1CCN(c2nccc(-c3ccsc3)n2)CC1 | 191 |  |  |  |
| CN1CCN(c2nccc(-n3ccnc3)n2)CC1 | 380 | 384 |  |  |
| CN1CCN(c2nc(-c3cc4ccccc4o3)cc(-c3cccn3C)n2)CC1 | 135 |  |  |  |

The next lines start with the values.

| Ki [1] [nM] | Ki [2] [nM] | Ki [3] [nM] | Ki [4] [nM] | Compound |
| --- | --- | --- | --- | --- |
| 20.9 |  |  |  | CN1CCN(c2nc(-c3ccsc3)cc(-c3cccs3)n2)CC1 |
| 40.7 | 41 |  |  | CN1CCN(c2nc(Cl)cc(-c3ccoc3)n2)CC1 |
|  |  | 4220 | 4270 | Cc1ccc(-c2cc(N3CCN(C)CC3)nc(Cl)n2)cc1 |
| 37.2 |  |  |  | CN1CCN(c2nc(-c3ccco3)cc(-c3cccs3)n2)CC1 |
|  |  | 5960 | 6030 | CN1CCN(c2cc(-c3ccco3)nc(Cl)n2)CC1 |
| 17 |  |  |  | Cc1c(-c2cccs2)nc(N2CCN(C)CC2)nc1-c1cccs1 |
|  |  | 2720 | 2690 | CN1CCN(c2cc(-c3cccs3)nc(Cl)n2)CC1 |
|  |  | 353 | 347 | CN1CCN(c2nc(Cl)cc(-c3cccs3)n2)CC1 |
| 575 | 582 |  |  | Cc1ccc(-c2cc(Cl)nc(N3CCN(C)CC3)n2)cc1 |
